From paper PMC2011106, “Structure/activity relationships for the enhancement by electron-affinic drugs of the anti-tumour effect of CCNU” (British Journal of Cancer, 1982)
Entries after “also recorded” stand apart in the source; their conditions may differ. Where a name gives a salt, the structure may show the parent alone. Read-outs that look alike come from different tables or passages of the source.

Experiments:
KHT sarcoma = test: regrowth-delay assay: enhancement of the anti-tumour effect of CCNU; assay type: in vivo, C3H mice; conditions: for enhancement of CCNU response relative to MISO: 2.5 mmol/kg 30 min before 10 mg/kg CCNU; for sensitizer dose/response curve, activity: Fig. 4, various sensitizer doses; for growth delay, test compound given alone: without CCNU
[1] = for toxicity at 2.5 mmol/kg: 2.5 mmol/kg i.p.; for toxicity: dose not stated, tested at MTD
KHT tumour = test system: KHT tumour; parameters: method as in Rauth et al. (1978); conditions: same tumour and mouse strain, similar timing; ref Rauth et al. (1978); cited from earlier work
ascites L1210 leukaemia = test system: ascites L1210 leukaemia; parameters: method as in Klubes et al., 1979; conditions: mice; ref Klubes et al., 1979; cited from earlier work
RIF-1 sarcoma = test system: RIF-1 sarcoma; parameters: method as in Siemann (1982); conditions: 5 mmol/kg; ref Siemann (1982); cited from earlier work
[2] = at close to maximum tolerated dose (MTD, below 2.5 mmol/kg) 30 min before 10 mg/kg CCNU

In the case of `O=C(Cn1ccnc1[N+](=O)[O-])NCc1ccccc1` [BENZO, benznidazole], the “enhancement of CCNU response relative to MISO” value (KHT sarcoma) is reported as “most active”, the “dose-modifying factor (DMF)” value (KHT sarcoma; 2.5 mmol/kg + 10 mg/kg CCNU compared with 20 mg/kg CCNU alone) is reported as over 2 and the “sensitizer dose/response curve, activity” value (KHT sarcoma; 10 mg/kg CCNU) is reported as “good activity at doses down to 0-05-0-1 mmol/kg”. The “activity relative to MISO at low doses” value (KHT sarcoma; low doses 0.1-0.9 mmol/kg, 10 mg/kg CCNU) was “considerably more active than MISO”.
In the case of `NC(=O)c1cc(N2CC2)c([N+](=O)[O-])cc1[N+](=O)[O-]` [CB 1954, 2,4-dinitro-5-aziridinylbenzamide], the “enhancement of CCNU response” value (KHT sarcoma; mouse, in vivo) is reported as “no enhancement of CCNU response at MTD”, the “growth delay, test compound given alone” value (KHT sarcoma) is reported as “about 1 day” and the “toxicity at 2.5 mmol/kg” value [1] is reported as “toxic”. For the same compound, the “toxicity” value [1] was “rather toxic”.
`O=NN(CCCl)C(=O)NC1CCCCC1` [CCNU, 1-(2-chloroethyl)-3-cyclohexyl-1-nitrosurea] gave a median growth delay (KHT sarcoma; CCNU 20 mg/kg alone, 11 independent experiments) of 10 days.
In the case of `O=[N+]([O-])c1nccn1CC(O)CO` (stereo not shown) [DEMIS, desmethylmisonida- zole], the “enhancement of CCNU response relative to MISO” value (KHT sarcoma) is listed as “considerably less active than MISO” and the “in vivo radiosensitization” value (KHT tumour) is listed as “good radiosensitization”.
With `Cc1ncc([N+](=O)[O-])n1CCO` [METRO, metronidazole] the “enhancement of CCNU response relative to MISO” value (KHT sarcoma) was “activities similar or even superior to MISO”, the “tumour response” value (KHT sarcoma; 10 mmol/kg + 10 mg/kg CCNU, Fig. 4) was “about the same as with 2-5 mmol/kg MISO” and the “sensitizer dose/response curve, activity” value (KHT sarcoma; 10 mg/kg CCNU) was “rather less active than MISO”. For the same compound, the “decrease in body temperature” value (10 mmol/kg) was 10 °C.
In the case of `COCC(O)Cn1ccnc1[N+](=O)[O-]` (stereo not shown) [MISO, misonidazole], the “Activity Index (AI) for enhancement of CCNU effect” value (KHT sarcoma; mouse, in vivo, 10 mg/kg) is reported as 1 and the “decrease in body temperature” value (mouse, in vivo) is reported as 1-2.
With `Cn1cnc([N+](=O)[O-])c1S(=O)(=O)Oc1ccccc1` [NSC 38087] the “enhancement of CCNU response” value (KHT sarcoma; [2]) was “little activity at MTD”, the “toxicity at 2.5 mmol/kg” value [1] was “toxic” and the “toxicity” value [1] was “highly toxic”.
In the case of `CCCC(C(=O)OCCN(CC)CC)(c1ccccc1)c1ccccc1` [SKF 525A, proadifen hydrochloride], the “effect on LD50 of methyl-CCNU” value (ascites L1210 leukaemia) is listed as “reducing the LD50”, the “response of ascites L1210 leukaemia to methyl-CCNU” value (ascites L1210 leukaemia) is listed as “increased the response” and the “enhancement of CCNU response” value (KHT sarcoma; 0.13 mmol/kg, 10 mg/kg CCNU, 10 mg/kg) is listed as “increased the anti-tumour effect of CCNU; also recorded: active”.
For `O=C(Cn1ccnc1[N+](=O)[O-])NCCO` [SR-2508], the “enhancement of RIF-1 tumour response to CCNU” value (RIF-1 sarcoma) is given as “Some enhancement”.
For `O=C1c2ccccc2C(=O)c2cc(S(=O)(=O)O)ccc21` [anthraquinone sulphonate, anthraquinone-2-sulphonate], the “enhancement of CCNU response relative to MISO” value (KHT sarcoma) was “reasonable activity”, the “decrease in body temperature” value (2.5 mmol/kg) was 5-6 °C and the “toxicity at 2.5 mmol/kg” value [1] was “non-toxic”.
For `Cn1cnc([N+](=O)[O-])c1Sc1ncnc2nc[nH]c12` [azathioprine], the “enhancement of CCNU response” value (KHT sarcoma; 1.4 mmol/kg, compared with 2.5 mmol/kg MISO, 10 mg/kg CCNU) was “superior to 2-5 mmol/kg MISO”, the “enhancement of CCNU response” value (KHT sarcoma; [2]) was “more active than MISO” and the “growth delay, test compound given alone” value (KHT sarcoma) was “about 1 day”. The “toxicity at 2.5 mmol/kg” value [1] was “toxic”.
For `O=[N+]([O-])c1nccn1CC(O)CN1CCCCC1` (stereo not shown) [compound 13], the “enhancement of CCNU response relative to MISO” value (KHT sarcoma) was “Neither was more effective than MISO” and the “enhancement of CCNU response relative to MISO” value (KHT sarcoma; listed as Ro 03-8799) was “slightly less than MISO”.
For `CC1=C(C)C(=O)C(C)=C(C)C1=O` [duroquinone], the “enhancement of CCNU response” value (KHT sarcoma; [2]) was “little or no activity” and the “toxicity” value [1] was “quite toxic”.
In the case of `c1c[nH]cn1` [imidazole], the “enhancement of CCNU response” value (KHT sarcoma; 5 mmol/kg (not shown), 10 mg/kg CCNU) is reported as “ineffective”.
In the case of `CC1=CC(=O)c2ccccc2C1=O` [menadione], the “enhancement of CCNU response” value (KHT sarcoma; [2]) is reported as “little or no activity” and the “toxicity” value [1] is reported as “quite toxic”.
In the case of `O=[N+]([O-])c1cncn1CCN1CCOCC1` [nimorazole], the “enhancement of CCNU response relative to MISO” value (KHT sarcoma) is reported as “activities similar or even superior to MISO”.
In the case of `O=C1CN(/N=C/c2ccc([N+](=O)[O-])o2)C(=O)N1` [nitrofurantoin], the “enhancement of CCNU response” value (KHT sarcoma; [2]) is reported as “virtually inactive” and the “toxicity at 2.5 mmol/kg” value [1] is reported as “toxic”.
In the case of `NC(=O)N/N=C/c1ccc([N+](=O)[O-])o1` [nitrofurazone], the “enhancement of CCNU response” value (KHT sarcoma; [2]) is reported as “reasonable activity; also recorded: reasonably active, but less than 2-5 mmol/kg MISO” and the “toxicity at 2.5 mmol/kg” value [1] is reported as “toxic”.
